# Measurements as given in patent US7507727B2, “Substituted quinobenzoxazine analogs and methods of using thereof” (Cylene Pharmaceuticals, Inc., priority 2003, dated 2009).
# Biological target: c-Myc template DNA (c-myc quadruplex)
# Experiment: Quadruplex binding / stop assay (Taq polymerase arrest, capillary electrophoresis)
# Details: read-out: Stop Data c-Myc μM; concentration at which 50% of the DNA was arrested (arrested:full-length 1:1)
row,Structure (SMILES),IC50 [µM]
1,O=C(O)c1cn2c3c(c(NCC4CCCO4)c(F)cc3c1=O)Oc1cc3ccccc3cc1-2 (stereo not shown) [compound 1],4
2,O=C(O)c1cn2c3c(c(NCCN4CCCC4)c(F)cc3c1=O)Oc1cc3ccccc3cc1-2 [compound 2],2.5
3,O=C(O)c1cn2c3c(c(NCCN4CCCC4)c(F)cc3c1=O)Oc1c-2ccc2ccccc12 [compound 3],2.5
4,CN(C)CCCCNc1c(F)cc2c(=O)c(C(=O)O)cn3c2c1Oc1c-3ccc2ccccc12 [compound 4],1.76
5,O=C(O)c1cn2c3c(c(NCCCN4CCOCC4)c(F)cc3c1=O)Oc1cc3c(cc1-2)-c1ccccc1C3 [compound 6],1.75
6,CN1CCCC1CCNc1c(F)cc2c(=O)c(C(=O)O)cn3c2c1Oc1cc2ccccc2cc1-3 (stereo not shown) [compound 7],1.75
7,CN(C)CCCCNc1c(F)cc2c(=O)c(C(=O)O)cn3c2c1Oc1cc2ccccc2cc1-3 [compound 8],1.75
8,Nc1ccc2[nH]c3cc4oc5c(NCCN6CCCC6)c(F)cc6c(=O)c(C(=O)O)cn(c4cc3oc2c1)c56 [compound 9],1.75
9,CN(C)c1c(F)cc2c(=O)c(C(=O)O)cn3c4cc5oc6cc(N)ccc6[nH]c5cc4oc1c23 [compound 10],1.75
10,Nc1ccc2[nH]c3cc4oc5c(N6CC[C@H](N)C6)c(F)cc6c(=O)c(C(=O)O)cn(c4cc3oc2c1)c56 [compound 11],1.75
11,O=C(O)c1cn2c3c(c(NCCCN4CCOCC4)c(F)cc3c1=O)Oc1cc3c(O)ncnc3cc1-2 [compound 12],1.75
12,Nc1c(F)c(F)c2c3c1c(=O)c(C(=O)O)cn3-c1cc3ccccc3cc1O2 [compound 13],1.75
13,Nc1c(F)c(NCCCN2CCOCC2)c2c3c1c(=O)c(C(=O)O)cn3-c1cc3ccccc3cc1O2 [compound 14],1.75
14,CC(C)(C)OC(=O)NC1CCN(c2c(F)c(N)c3c(=O)c(C(=O)O)cn4c3c2Oc2cc3ccccc3cc2-4)C1 (stereo not shown) [compound 15],1.75
15,Nc1c(F)cc2c(=O)c(C(=O)O)cn3c2c1Oc1c-3ccc2ccccc12 [compound 16],0.9
16,O=C(O)c1cn2c3cc4oc5cc([N+](=O)[O-])ccc5[nH]c4cc3oc3c(NCCN4CCCC4)c(F)cc(c1=O)c32 [compound 17],0.75
17,O=C(O)c1cn2c3cc4oc5cc([N+](=O)[O-])ccc5[nH]c4cc3oc3c(NCCCN4CCOCC4)c(F)cc(c1=O)c32 [compound 18],0.75
18,CN(C)CCCCNc1c(F)cc2c(=O)c(C(=O)O)cn3c4cc5oc6cc([N+](=O)[O-])ccc6[nH]c5cc4oc1c23 [compound 19],0.75
19,CN1CCCC1CCNc1c(F)cc2c(=O)c(C(=O)O)cn3c4cc5oc6cc(N)ccc6[nH]c5cc4oc1c23 (stereo not shown) [compound 20],0.75
20,CN(C)CCCCNc1c(F)cc2c(=O)c(C(=O)O)cn3c4cc5oc6cc(N)ccc6[nH]c5cc4oc1c23 [compound 21],0.75
21,CN1CCN(CCCNc2c(F)cc3c(=O)c(C(=O)O)cn4c5cc6oc7cc(N)ccc7[nH]c6cc5oc2c34)CC1 [compound 22],0.75
22,O=C(O)c1cn2c3c(c(N4CC5CCCNC5C4)c(F)cc3c1=O)Oc1cc3ccccc3cc1-2 (stereo not shown) [compound 23],0.75
23,CN(CCc1ccccn1)C(=O)c1ccc2c(c1)Oc1c(NCCCn3ccnc3)c(F)cc3c(=O)c(C(=O)N(C)CCc4ccccn4)cn-2c13 [compound 39],2.5

row,Structure (SMILES),IC50 [µM]
1,O=C(NCCCn1ccnc1)c1cn2c3c(c(NCCCn4ccnc4)c(F)cc3c1=O)Oc1cc3ccccc3cc1-2 [compound 40],2.5
2,CN1CCCN(c2c(F)cc3c(=O)c(C(=O)N4CCOCC4)cn4c3c2Oc2cc3ccccc3cc2-4)CC1 [compound 41],2.5
3,CCN1CCCC1CNc1c(F)cc2c(=O)c(C(=O)N3CCOCC3)cn3c2c1Oc1cc2ccccc2cc1-3 (stereo not shown) [compound 42],2.5
4,O=C(c1cn2c3c(c(NCCN4CCCC4)c(F)cc3c1=O)Oc1cc3ccccc3cc1-2)N1CCOCC1 [compound 43],2.5
5,O=C(c1cn2c3c(c(NCC4CCNCC4)c(F)cc3c1=O)Oc1cc3ccccc3cc1-2)N1CCOCC1 [compound 44],2.5
6,CCCCN(CCCC)CCCNc1c(F)cc2c(=O)c(C(=O)N3CCOCC3)cn3c2c1Oc1cc2ccccc2cc1-3 [compound 45],2.5
7,O=C(Nc1nnc(C(F)(F)F)s1)c1cn2c3c(c(NCCN4CCCC4)c(F)cc3c1=O)Oc1ccccc1-2 [compound 46],2.5
8,O=C(NCCCN1CCOCC1)c1cn2c3c(c(NCCCN4CCOCC4)c(F)cc3c1=O)Oc1ccccc1-2 [compound 47],2.5
9,O=C(NCCN1CCOCC1)c1cn2c3c(c(NCCCN4CCOCC4)c(F)cc3c1=O)Oc1cc3ccccc3cc1-2 [compound 48],2.5
10,CN1CCN(CCCNC(=O)c2cn3c4c(c(NCCCN5CCOCC5)c(F)cc4c2=O)Oc2cc4ccccc4cc2-3)CC1 [compound 49],2.5
11,CC(C)(C)OC(=O)N[C@@H]1CCN(C(=O)c2cn3c4c(c(NCCCN5CCOCC5)c(F)cc4c2=O)Oc2cc4ccccc4cc2-3)C1 [compound 50],2.5
12,CN1CCCC1CCNC(=O)c1cn2c3c(c(NCCCN4CCOCC4)c(F)cc3c1=O)Oc1cc3ccccc3cc1-2 (stereo not shown) [compound 51],2.5
13,CN(C)CCCCNC(=O)c1cn2c3c(c(NCCCN4CCOCC4)c(F)cc3c1=O)Oc1cc3ccccc3cc1-2 [compound 52],2.5
14,O=C(NCCCN1CCOCC1)c1cn2c3c(c(NCCN4CCOCC4)c(F)cc3c1=O)Oc1cc3ccccc3cc1-2 [compound 53],2.5
15,O=C(NCCN1CCOCC1)c1cn2c3c(c(NCCN4CCOCC4)c(F)cc3c1=O)Oc1cc3ccccc3cc1-2 [compound 54],2.5
16,CN1CCN(CCCNC(=O)c2cn3c4c(c(NCCN5CCOCC5)c(F)cc4c2=O)Oc2cc4ccccc4cc2-3)CC1 [compound 55],2.5
17,CC(C)(C)OC(=O)N[C@@H]1CCN(C(=O)c2cn3c4c(c(NCCN5CCOCC5)c(F)cc4c2=O)Oc2cc4ccccc4cc2-3)C1 [compound 56],2.5
18,CN1CCCC1CCNC(=O)c1cn2c3c(c(NCCN4CCOCC4)c(F)cc3c1=O)Oc1cc3ccccc3cc1-2 (stereo not shown) [compound 57],2.5
19,O=C(NCCN1CCCC1)c1cn2c3c(c(NCCN4CCOCC4)c(F)cc3c1=O)Oc1cc3ccccc3cc1-2 [compound 58],2.5
20,CN(C)CCCCNC(=O)c1cn2c3c(c(NCCN4CCOCC4)c(F)cc3c1=O)Oc1cc3ccccc3cc1-2 [compound 59],2.5
21,CN1CCN(CCCNc2c(F)cc3c(=O)c(C(=O)NCCN4CCOCC4)cn4c3c2Oc2cc3ccccc3cc2-4)CC1 [compound 60],2.5
22,CN1CCN(CCCNc2c(F)cc3c(=O)c(C(=O)N4CC[C@@H](NC(=O)OC(C)(C)C)C4)cn4c3c2Oc2cc3ccccc3cc2-4)CC1 [compound 61],2.5
23,CC(C)(C)OC(=O)N[C@@H]1CCN(c2c(F)cc3c(=O)c(C(=O)NCCCN4CCOCC4)cn4c3c2Oc2cc3ccccc3cc2-4)C1 [compound 62],2.5

row,Structure (SMILES),IC50 [µM]
1,CC(C)(C)OC(=O)N[C@@H]1CCN(c2c(F)cc3c(=O)c(C(=O)NCCN4CCOCC4)cn4c3c2Oc2cc3ccccc3cc2-4)C1 [compound 63],2.5
2,CN1CCN(CCCNC(=O)c2cn3c4c(c(N5CC[C@@H](NC(=O)OC(C)(C)C)C5)c(F)cc4c2=O)Oc2cc4ccccc4cc2-3)CC1 [compound 64],2.5
3,CC(C)(C)OC(=O)N[C@@H]1CCN(C(=O)c2cn3c4c(c(N5CC[C@@H](NC(=O)OC(C)(C)C)C5)c(F)cc4c2=O)Oc2cc4ccccc4cc2-3)C1 [compound 65],2.5
4,CN(C)CCCCNC(=O)c1cn2c3c(c(N4CC[C@@H](NC(=O)OC(C)(C)C)C4)c(F)cc3c1=O)Oc1cc3ccccc3cc1-2 [compound 66],2.5
5,CN1CCCC1CCNc1c(F)cc2c(=O)c(C(=O)NCCN3CCOCC3)cn3c2c1Oc1cc2ccccc2cc1-3 (stereo not shown) [compound 67],2.5
6,CN1CCCC1CCNc1c(F)cc2c(=O)c(C(=O)N3CC[C@@H](NC(=O)OC(C)(C)C)C3)cn3c2c1Oc1cc2ccccc2cc1-3 (stereo partly shown) [compound 68],2.5
7,O=C(NCCCN1CCOCC1)c1cn2c3c(c(NCCN4CCCC4)c(F)cc3c1=O)Oc1cc3ccccc3cc1-2 [compound 69],2.5
8,O=C(NCCN1CCOCC1)c1cn2c3c(c(NCCN4CCCC4)c(F)cc3c1=O)Oc1cc3ccccc3cc1-2 [compound 70],2.5
9,CN1CCN(CCCNC(=O)c2cn3c4c(c(NCCN5CCCC5)c(F)cc4c2=O)Oc2cc4ccccc4cc2-3)CC1 [compound 71],2.5
10,CC(C)(C)OC(=O)N[C@@H]1CCN(C(=O)c2cn3c4c(c(NCCN5CCCC5)c(F)cc4c2=O)Oc2cc4ccccc4cc2-3)C1 [compound 72],2.5
11,CN1CCCC1CCNC(=O)c1cn2c3c(c(NCCN4CCCC4)c(F)cc3c1=O)Oc1cc3ccccc3cc1-2 (stereo not shown) [compound 73],2.5
12,O=C(NCCN1CCCC1)c1cn2c3c(c(NCCN4CCCC4)c(F)cc3c1=O)Oc1cc3ccccc3cc1-2 [compound 74],2.5
13,CN1CCN(C(=O)c2cn3c4c(c(NCCC5CCCN5C)c(F)cc4c2=O)Oc2c-3ccc3ccccc23)CC1 (stereo not shown) [compound 75],2.5
14,CN(C)CCCCNc1c(F)cc2c(=O)c(C(=O)Nc3ccc(N(C)C)cc3)cn3c2c1Oc1c-3ccc2ccccc12 [compound 76],2.5
15,N[C@@H]1CCN(c2c(F)cc3c(=O)c(C(=O)NCCN4CCOCC4)cn4c3c2Oc2c-4ccc3ccccc23)C1 [compound 77],2.5
16,N[C@@H]1CCN(C(=O)c2cn3c4c(c(N5CC[C@@H](N)C5)c(F)cc4c2=O)Oc2c-3ccc3ccccc23)C1 [compound 78],2.5
17,N[C@@H]1CCN(c2c(F)cc3c(=O)c(C(=O)N4CCOCC4)cn4c3c2Oc2c-4ccc3ccccc23)C1 [compound 79],2.5
18,CN(CCc1ccccn1)C(=O)c1cn2c3c(c(N4CC[C@@H](N)C4)c(F)cc3c1=O)Oc1c-2ccc2ccccc12 [compound 80],2.5
19,CN1CCN(C(=O)c2cn3c4c(c(N5CC[C@@H](N)C5)c(F)cc4c2=O)Oc2c-3ccc3ccccc23)CC1 [compound 81],2.5
20,CN(C)c1ccc(NC(=O)c2cn3c4c(c(N5CC[C@@H](N)C5)c(F)cc4c2=O)Oc2c-3ccc3ccccc23)cc1 [compound 82],2.5
21,N[C@@H]1CCN(C(=O)c2cn3c4c(c(NCCCN5CCOCC5)c(F)cc4c2=O)Oc2c-3ccc3ccccc23)C1 [compound 83],2.5
